From patent US11679107B2 (Eisai R&D Management Co., Ltd., priority 2018, dated 2023)
Where two headings read alike, the source gives them in different places.

Assays:
SF3b complexes = biological target: T1, SF3b complexes (Homo sapiens, UniProt O75533+Q7RTV0); assay: Scintillation proximity assay (SPA) with [3H]-labelled pladienolide probe; assay type: binding; conditions: SF3B1 (WT); geometric mean; read-out: SPA-ATS GMean IC50 (nM) SF3B1 (WT)
T1 construct: endogenous in cells; host or cells: Nuclear extracts; A HeLa S3 extract preparation is described for the in vitro splicing assay
Method: Scintillation Proximity Assay (SPA) with [^3-H]-Labelled Pladienolide Probe
(§1) Batch immobilization of anti-SF3B1 antibody (MBL) to anti-mouse PVT SPA scintillation beads (PerkinElmer) was prepared as follows: for every 2.5 mg of nuclear extracts, 5 μg anti-SF3B1 antibody and 1.5 mg of beads were mixed in 150 μl PBS. The antibody-bead mixture was incubated for 30 min at RT and centrifuged at 18,000 g for 5 min. 150 μl PBS was used to resuspend every 1.5 mg antibody-bead mixture. The beads were suspended and added to the prepared nuclear extracts. The slurry was incubated for 2 h at 4° C. with gentle mixing. The beads were then collected by centrifuging at 18,000 g for 5 min, and washed twice with PBS+0.1% Triton X-100. After a final centrifugation step, every 1.5 mg of beads was suspended with 150 μl of PBS. The SF3b complexes were tested for [^3H]-labelled pladienolide probe binding ([^3H]—PB), synthesized as previously described (Kotake et al., 2007). 100 μl binding reactions were prepared with 50 μl bead slurry and by adding varying concentrations of PB or PB—OH, and after 30 min pre-incubation, 2.5 nM [^3H]—PB was added. The mixture was incubated for 30 min, and luminescence signals were read using a MicroBeta2 Plate Counter (PerkinElmer). Prism 6 (Graphpad) was used for non-linear regression curve fitting of the data. • a. • b. HeLa nuclear extract preparation (for in vitro splicing modulation assay below) • c. HeLa S3 cell pellets were resuspended in hypotonic buffer (10 mM HEPES pH 7.9, 1.5 mM MgCl2, 10 mM KCl, 0.2 mM PMSF, and 0.5 mM DTT) and the suspension was brought up to a total of 5 packed cell volume (PCV). After centrifugation, the supernatant was discarded, and the cells were brought up to 3 PCV with hypotonic buffer and incubated on ice for 10 minutes. Cells were lysed using a dounce homogenizer and then centrifuged. The supernatant was discarded, and the pellet was resuspended with ½ packed nuclear volume (PNV) of low salt buffer (20 mM HEPES pH 7.9, 1.5 mM MgCl2, 20 mM KCl, 0.2 mM EDTA, 25% glycerol, 0.2 mM PMSF, 0.5 mM DTT), followed by ½ PNV of high salt buffer (same as low salt buffer except 1.4 M KCl was used). The nuclei were gently mixed for 30 minutes before centrifuging. The supernatant (nuclear extract) was then dialyzed into storage buffer (20 mM HEPES pH 7.9, 100 mM KCl, 0.2 mM EDTA, 20% glycerol, 0.2 mM PMSF, 0.5 mM DTT). Protein concentration was determined using NanoDrop 8000 UV-Vis spectrophotometer (ThermoFisher Scientific). • d. In vitro splicing assay (IVS)

[1] = system: NCI-H1568 cells (high MCL1); assay: Cell proliferation and viability, CellTiter-Glo, 72 hours; assay type: cell-based; conditions: for GI50: geometric mean
Method: (§2) Cell lines were maintained in RPMI-1640 (ATCC 30-2001) supplemented with 10% fetal bovine serum (FBS). The Panc lines were supplemented in addition with insulin and FBS up to 15% total.
(§3) Compounds for assay were prepared as stocks in 90% dimethyl sulfoxide (DMSO), assessed for purity by LC/MS, and serially diluted in DMSO using a low-volume liquid handler (VIAFLO ASSIST and VIAFLO II electronic 16-channel pipette, 0.5-12.5 μL) in an 11-point half-log serial dilution to create a master dose response (MDR) source used for all tests.
(§4) Transfer of compounds from the MDR source plate to cell assay-ready plates were accomplished directly by low-energy acoustic transfer (ATS100, EDC Biosystems). After transfer of compounds to the assay plate, the dose-response range experienced by cells was typically 10 μM-100 pM (5 logs), and final DMSO concentration in the assay was 0.1%, uniformly. Each assay plate was self-anchored containing vehicle/DMSO negative controls, medium-only/positive controls, and cidal control dose-responses of bortezomib and staurosporine. Assay-ready plates were heat-sealed and stored at −20° C. until used, no longer than one month.
(§5) A DMSO-matched time zero (T0) plate was read and then all other plates were incubated at 37° C. with 5% CO2 and 95% relative humidity until the end of assay. Cell proliferation and viability assays were performed 72 hours post-treatment depending on cell growth where at least one doubling would have occurred.
(§6) Assessment of viability and proliferation was by measurement of cell ATP content using CellTiter-Glo® Luminescent Cell Viability Assay reagent (Promega) according to the manufacturer's instructions (CellTiter-Glo® Luminescent Cell Viability Assay Technical Bulletin Instructions for Use of Product(s) G7570, G7571, G7572, G7573 Literature #TB288, Revised March 2015), using a microtiter plate reader (Envision, PE).
(§7) Cell proliferation was evaluated using the time zero (T0) signal as the positive control and the within-plate vehicle wells (DMSO) as the negative control. Data was converted to percent inhibition and falls into the range from −100% to 100% of growth where −100% equals a cidal response and 100% equals uninhibited or maximal growth. Cell growth at or near 0% is considered a static response.

[2] = system: Ad2 variant pre-mRNAs spliced in HeLa S3 nuclear extracts; assay: In vitro splicing assay (IVS), RT-qPCR of spliced product; assay type: biochemical; conditions: for IC50: geometric mean; for Ratio Ad2.1/2.2: ratio of IVS IC50 Ad2.1 to Ad2.2
Method: as §1
All Ad2-derived (Pellizzoni et al., 1998) sequences were cloned into pcDNA3.1(+) vector (Promega) using 5′ EcoRI and 3′ XbaI restriction sites. The plasmids were linearized using XbaI and used as DNA templates in the in vitro transcription reactions. The FtzΔi intron-less plasmid (Luo and Reed, 1999) was linearized using EcoRI. All RNAs were in vitro transcribed and then purified using MEGAScript T7 (Invitrogen) and MegaClear (Invitrogen) kits, respectively. For splicing reactions using Ad2 variant pre-mRNAs, […] reactions were prepared using 8 μg nuclear extracts prepared from HeLa S3, 2 ng pre-mRNA, 0.2 ng FTZΔi, and varying concentrations of exemplary payloads or DMSO. After a 15 minute pre-incubation at 30° C., 1 μL splicing activation buffer (0.5 mM ATP, 20 mM creatine phosphate, 1.6 mM MgCl2) was added, and the reactions were incubated for 90 minutes at 30° C. The reactions were then quenched with 13 μL it DMSO, and 25 nL was used for RT-qPCR. RT-qPCR reactions were prepared using TaqMan RNA-to-CT 1-step kit (Life Technologies), RNA from splicing reactions, Ad2 (forward: […]; reverse: […]; probe: […]) and Ftz (forward: […]; reverse: […]; probe: […]) mRNA primer-probe sets. Prism 6 (Graphpad) was used for non-linear regression curve fitting of the formed spliced product and normalized to the control (DMSO) sample.

[3] = system: Panc 05.04 cells (SF3b K700E mutant); assay: Cell proliferation and viability, CellTiter-Glo, 72 hours; assay type: cell-based; conditions: for GI50: geometric mean
Method: as §2, §3, §4, §5, §6, §7

[4] = 72 h, NCIH1568.1, -100% = cidal, 0% = static, 100% = uninhibited growth
[5] = NCI-H1568, 72 h, read-out: CTGlo-ATS GMean GI50 (nM) 72 h NCIH1568.1, 72 h, NCIH1568.1
[6] = Ad2.1 pre-mRNA substrate, read-out: qPCR-IVS-ATS GMean IC50 (nM) Ad2.1
[7] = Ad2.2 pre-mRNA substrate, read-out: qPCR-IVS-ATS GMean IC50 (nM) Ad2.2
[8] = 72 h, PANC0504.1, -100% = cidal, 0% = static, 100% = uninhibited growth
[9] = Panc 05.04, 72 h, read-out: CTGlo-ATS GMean GI50 (nM) 72 h PANC0504.1, 72 h, PANC0504.1
[10] = PANC0504.1 cells, 72 h, −100% cidal, 0% static, 100% maximal growth
[11] = Panc 05.04, 72 h, read-out: CTGlo-ATS GMean GI50 (nM) 72 h PANC0504.1, PANC0504.1 cells, 72 h
[12] = NCI-H1568, read-out: CTGlo-ATS GMean GI50 (nM) 72 h NCIH1568.1, NCIH1568.1 cells, 72 h
[13] = NCIH1568.1 cells, 72 h, −100% cidal, 0% static, 100% maximal growth
[14] = Panc 05.04, read-out: CTGlo-ATS GMean GI50 (nM) 72 h PANC0504.1, PANC0504.1 cells, 72 h

IC50 (SF3b complexes) [nM]	SMILES	CTGlo-ATS Mean MinResponse % 72 h NCIH1568.1 [1, 4] [%]	GI50 [1, 5] [nM]	IC50 [2, 6] [nM]	IC50 [2, 7] [nM]	Ratio Ad2.1/2.2 [2]	CTGlo-ATS Mean MinResponse % 72 h PANC0504.1 [3, 8] [%]	GI50 [3, 9] [nM]	CTGlo-ATS Mean MinResponse % 72 h PANC0504.1 [3, 10] [%]	GI50 [3, 11] [nM]	GI50 [1, 12] [nM]	CTGlo-ATS Mean MinResponse % 72 h NCIH1568.1 [1, 13] [%]	GI50 [3, 14] [nM]	GI50 ([1]; NCI-H1568, 72 h, read-out: CTGlo-ATS GMean GI50 (nM) 72 h NCIH1568.1, NCIH1568.1 cells, 72 h) [nM]
3.25	C/C(=C\c1cc(F)cc(N2CCN(C(=O)Cn3cccn3)CC2)c1)[C@H]1OC(=O)C[C@H](O)CC[C@H](C)[C@@H](OC(=O)N2CCC(N(C)C)C2)/C=C/[C@@H]1C (stereo in doubt) [Compound 227, [(2S,3S,4E,6R,7S,10R)-2-[(E)-1-[3-fluoro-5-[4-(2-pyrazol-1-ylacetyl)piperazin-1-yl]phenyl]prop-1-en-2-yl]-10-hydroxy-3,7-dimethyl-12-oxo-1-oxacyclododec-4-en-6-yl] (3S)-3-(dimethylamino)pyrrolidine-1-carboxylate]	−81.522	2.37	–	–	–	–	–	–	–	–	–	–	–
–	C/C(=C\c1cccc(COC(=O)N2CCC(O)CC2)c1)[C@H]1OC(=O)C[C@H](O)CC[C@H](C)[C@@H](OC(=O)N2CCN(C)CC2)/C=C/[C@@H]1C [Compound 261, [(2S,3S,4E,6R,7S,10R)-10-hydroxy-2-[(E)-1-[3-[(4-hydroxypiperidine-1-carbonyl)oxymethyl]phenyl]prop-1-en-2-yl]-3,7-dimethyl-12-oxo-1-oxacyclododec-4-en-6-yl] 4-methylpiperazine-1-carboxylate]	−36.811	57.6	23300	76.6	304.222	−89.906	32.3	–	–	–	–	–	–
–	C/C(=C\c1ccc(F)c(N2CCOCC2)c1)[C@H]1OC(=O)C[C@H](O)CC[C@H](C)[C@@H](OC(=O)N2CCN(C)CC2)/C=C/[C@@H]1C [Compound 8]	–	–	14200	42.2	–	–	–	−94.207	19.3	–	–	–	–
–	C/C(=C\c1cc(F)cc(N2CCOCC2)c1)[C@H]1OC(=O)C[C@H](O)CC[C@H](C)[C@@H](OC(=O)N(C)Cc2ccncc2)/C=C/[C@@H]1C [Compound 47]	–	–	16900	79.6	–	–	–	−87.783	–	66.5	−44.494	78.2	–
–	C/C(=C\c1ccc(S(=O)(=O)NC2CC2)c(F)c1)[C@H]1OC(=O)C[C@H](O)CC[C@H](C)[C@@H](OC(=O)N2CCN(C)CC2)/C=C/[C@@H]1C [Compound 90, [(2S,3S,4E,6R,7S,10R)-2-[(E)-1-[4-(cyclopropylsulfamoyl)-3-fluorophenyl]prop-1-en-2-yl]-10-hydroxy-3,7-dimethyl-12-oxo-1-oxacyclododec-4-en-6-yl] 4-methylpiperazine-1-carboxylate]	–	–	> 25000	168	–	–	–	−12.315	–	107	−8.495	141	–
–	C/C(=C\c1cccc(COC(=O)N2CCCC2CO)c1)[C@H]1OC(=O)C[C@H](O)CC[C@H](C)[C@@H](OC(=O)N2CCN(C)CC2)/C=C/[C@@H]1C (stereo in doubt) [Compound 259, [(2S,3S,4E,6R,7S,10R)-10-hydroxy-2-[(E)-1-[3-[[(2R)-2-(hydroxymethyl)pyrrolidine-1-carbonyl]oxymethyl]phenyl]prop-1-en-2-yl]-3,7-dimethyl-12-oxo-1-oxacyclododec-4-en-6-yl] 4-methylpiperazine-1-carboxylate]	−43.329	133	> 25000	83.1	300.977	−86.489	31.5	–	–	–	–	–	–
–	C/C(=C\c1cc(F)cc(N2CCC(O)CC2)c1)[C@H]1OC(=O)C[C@H](O)CC[C@H](C)[C@@H](OC(=O)N2CCN(C)CC2)/C=C/[C@@H]1C [Compound 30]	–	–	19.1	11	–	–	–	−75.997	7.02	–	−78.664	–	5.89
